In paper PMC9138545, “Incorporation of Oxidized Phenylalanine Derivatives into Insulin Signaling Relevant Proteins May Link Oxidative Stress to Signaling Conditions Underlying Chronic Insulin Resistance” (Biomedicines, 2022):
“Also recorded” adds a separate entry of the source.

How the values were obtained:
IRS-1 (Tyr612) = assay: Western blot, activating phosphorylation of IRS-1 (Tyr612); assay type: cell-based; conditions: 400 nmol/L insulin; adipocytes, HEK cells, podocytes, macrophages; n = 4–8
Procedure: (§1) Early passages of mouse embryo fibroblast (3T3-L1) (ATCC, Manassas, VA, US) were cultured in Dulbecco’s modified Eagle medium (DMEM, Sigma Aldrich, Budapest, Hungary, CAT number: D6046; Invitrogen, Waltham, MA, USA, CAT number: 41966-029) supplemented with 100 U/mL penicillin, 0.1 mg/mL streptomycin (Gibco, Budapest, Hungary, CAT number: 15070-063) and 10% heat-inactivated Fetal Bovine Serum (FBS, Gibco, CAT number: 16170-078), supplemented with 398 nM p-, m-, or o-Tyr (equimolar to the original p-Tyr content of the medium) purchased from Sigma (CAT number: para-Tyr: T8566, m-Tyr: T3629, o-Tyr: 93851). Media contained 25 or 5 mmol/L glucose (experiment dependent) pyruvate and L-glutamine. Cells were grown at 37 °C and 5% CO2. Adipocyte differentiation was achieved by DMEM supplemented with 10% FBS (Gibco, Csertex, Budapest, Hungary, CAT number: 10106-169) (FBS) and a […] insulin (Sigma Aldrich, Budapest, Hungary, CAT number: I 9278), […] isobuthylmethylxanthine (Sigma Aldrich, Budapest, Hungary, CAT number: I 5879), and 250 nmol/L dexamethasone (Sigma Aldrich, Budapest, Hungary, CAT number: 861871) containing cocktail. From day 4 onward, cultures were maintained in DMEM containing 1.5 μg/mL insulin and 10% FBS with a medium change every other day until experimental treatments were started. After 90% of the cell population reached the adipocyte phenotype, prior to all treatments, cells were incubated overnight in serum-deprived medium. Experimental treatment was performed in serum-deprived medium containing 200 or 400 nmol/L insulin, for 5 min.
(§2) The conditionally immortalized human podocyte cell line (provided by Moin Saleem, University of Bristol, UK) was cultured in RPMI1640 medium (R8756, Sigma Aldrich, Budapest, Hungary) supplemented with 10% heat-inactivated FBS (16170-078, Gibco, Budapest, Hungary), insulin-transferrin-selenium supplement (41400-045, Gibco), 100 U/mL penicillin, 0.1 mg/mL streptomycin (P4333, Sigma), and […] (equimolar to the original p-Tyr content of the medium) para-, meta-, or ortho-Tyr. The cells were grown at 33 °C 5% CO2, and when they reached 40–60% confluency they were transferred to 37 °C to differentiate. Following the thermoswitching, cells were kept on RPMI1640 medium containing 2% FBS, antibiotics, and different tyrosines. Before every treatment, cells were incubated in serum-deprived medium overnight.
(§3) HEK-293 immortalized cell line (ATCC, Manassas, VA, USA) of epithelial morphology and the J774A.1 mouse BALB/C monocyte-macrophage cell lines (91051511-1VL, Sigma Aldrich, Budapest, Hungary) were cultured in Petri dishes with a medium composed of Dulbecco’s modified Eagle’s medium (DMEM, Sigma Aldrich, Budapest, Hungary, CAT number: D6046, Invitrogen, CAT number: 41966-029), with a 10% heat-inactivated FBS supplementation (16170-078, Gibco), insulin-transferrin-selenium supplement (41400-045, Gibco, Budapest, Hungary,), 100 U/mL penicillin and 0.1 mg/mL streptomycin (P4333, Sigma) and 398 nM para (5 and 25 mmol/L), meta-, or ortho-Tyr (T8566, T3629, 93851, Sigma). Before treatment, cells were incubated in serum-deprived medium overnight as well. […]
(§4) The samples of lysates were vortexed and centrifuged (10 min, 13,000 rpm, at 4 °C). Protein content of the samples was determined by the Lowry method using bovine serum albumin as a standard. […]

3T3-L1 adipocytes [1] = assay: Isotope glucose uptake (deoxy-D-glucose 2-[1 2-3H(N)]) in differentiated 3T3-L1 adipocytes; assay type: cell-based, mouse
Procedure: as §1
Initially, cells were kept in glucose-free DMEM (Gibco, Csertex, Budapest, Hungary) for 30 min and then were treated with 2, 20, 200, or 400 nmol/L insulin for 100 min. Concurrently, 1 μCi/mL deoxy-D-glucose 2-[1 2-3H(N)] (3.7 × 104 Bq/mL) (Izotóp Intézet, Budapest, Hungary) was added to the plates for 100 min. After scraping the cells into the medium, they were centrifuged for 5 min at 1000 rpm. We dissolved the sediment in 70 μL of lysis buffer, then glucose uptake was determined by scintillation counting by measuring 30 μL of the sample, using a Beckman LS 5000 TD counter, in counts per minute (CPM), for five minutes each, with average activity was used as the outcome. Following freezing overnight at −70 °C, protein concentration was measured with a Hitachi spectrophotometer. Results were normalized for protein content.

Akt (Ser473) = assay: Western blot, activating phosphorylation of Akt (Ser473); assay type: cell-based; conditions: 400 nmol/L insulin; adipocytes, HEK cells, podocytes, macrophages; n = 4–8
Procedure: as §1, §2, §3, §4

[2] = test system: IR kinase (989–1382, fused to GST); assay: IR kinase phosphorylation assay, capillary electrophoresis; assay type: biochemical; conditions: 200 μM peptide, 875 nM IR kinase, 1 mM ATP, 5 mM MgCl2, pH 7.5
Procedure: Enzymatically active IR kinase (989–1382, fused to GST and produced in SF9 cells) was ordered from SinoBiological (catalog number 11081-H20B1). The stock solution was aliquoted and frozen separately to preserve activity. Prior to comparative measurements, the activity of recombinant IR kinase was tested on internal control peptides and found to be suitable for kinase assays.
The kinase assay mixture contained 200 μM peptide (GRKGSGDYMPMSPKV) and 875 nM IR kinase in kinase buffer (20 mM potassium phosphate (monobasic), 15 mM sodium phosphate (dibasic), 103 mM NaCl, 5 mM MgCl2, 5% glycerol, 0.05% Igepal; pH 7.5). The reaction was initialized by addition of 1 mM ATP. The phosphatase reaction mixture contained 80 μM peptide (GRKGSGD(phosphoY)MPMSPKV) in buffer (50 mM TRIS, 150 mM NaCl, 1 mM EDTA and 2 mM DTT; pH 7.4). The reaction was initialized by addition of 25 nM PTP1B enzyme. Equal aliquots of the kinase or the phosphatase reaction mixture were subjected to capillary electrophoresis analysis at the indicated time points after the start the reaction.
Background electrolyte (BGE) components phosphoric acid and triethylamine were purchased from Sigma (St. Louis, MO, USA) and from Merck GmbH (Darmstadt, Germany), respectively. Capillary electrophoresis was performed with an Agilent Capillary Electrophoresis 3DCE system (Agilent Technologies, Waldbronn, Germany) applying DB-WAX coated capillary having a 33.5 cm total and 25 cm effective length with 50 μm I.D. (Agilent Technologies, Santa Clara, CA, USA). On-line absorption at 200 nm was monitored by DAD UV-Vis detector. The capillary was thermostated at 25 °C. Before measurements, the capillary was rinsed subsequently with distilled water for 15 min and between measurements with BGE (100 mM trimethylamine-phosphate buffer; pH 2.5) for 3 min. Samples were injected by 5 × 10^3 Pa pressure for 6 s. Runs were performed in the positive-polarity mode with 20 kV.

p-IRS-1 in podocytes = assay: Immunofluorescence of p-IRS-1 in insulin-treated podocytes; assay type: cell-based, human; conditions: 400 nmol/l insulin for 10 min
Procedure: as §2
(§5) In a 6-well plate, 104 cells were cultured on glass coverslips washed with alcohol and dried under UV light. The podocyte cells were grown in RPMI1640 medium supplemented with 10% heat-inactivated FBS at 33 °C, 5% CO2. When they reached 60% confluence, the medium was changed to RPMI1640 medium containing 2% FBS and 112.05 nM of the different tyrosine isoforms, then the plates were transferred to 37 °C, 5% CO2 to allow the cells to differentiate. The different tyrosine isoforms were added to the maintenance medium. The cells were serum deprived overnight, then incubated with 400 nmol/l insulin for 10 min. After removal of the medium, the coverslips were washed twice with PBS. The cells were fixed at room temperature in 2% paraformaldehyde and 4% sucrose for 8 min, then permeabilized using 0.3% Trion X-100 in 1xPBS for 20 min and blocked in 2.5% BSA for 45 min [45]. The primary antibody was diluted in 1xPBS, and the cells were incubated in it for 60 min in humid conditions. The antibodies we used were mouse anti-WT1 antibody (H-1) (1:100, Santa Cruz Biotechnology, Dallas, TX, USA), chicken anti-vimentin antibody (1:100, Abcam), rabbit anti-glucose transporter GLUT4 antibody (1:100, Abcam, Cambridge, UK), mouse Insulin Receptor Substrate-1 antibody (1:100, Invitrogen, Waltham, MA, USA), and rabbit anti-phospho-Insulin Receptor Substrate-1 (pTyr612) antibody (1:10, Sigma). Coverslips were washed in PBS three times for 5 min in PBS and incubated in the fluorophore-conjugated secondary antibodies anti-goat, anti-chicken, secondary antibody Alexa fluor 647, anti-rabbit Alexa fluor 350, and anti-mouse Alexa Fluor 488 (1:10, Invitrogen) for 60 min. Samples were then washed in PBS three times for 5 min and mounted in Vectashield (Vector Laboratories). Images were taken with a Nikon Eclipse Ti2 microscope.

3T3-L1 adipocytes [3] = assay: HPLC of non-protein-bound intracellular tyrosines; assay type: cell-based, mouse; conditions: 5 or 25 mmol/L glucose, with or without 400 nmol/L insulin
Procedure: as §1
To measure the total intracellular non-protein-bound tyrosine concentration, prior to the freezing of samples overnight at −70 °C to achieve cell lysis, 200 μL distilled water was added to each. After melting up, samples were centrifuged for 15 min at 15,000 rpm. A total of 200 µL of the supernatant was mixed with 200 µL of 60% trichloroacetic acid. After 30 min incubation on ice, samples were centrifuged again at 15,000 rpm for 15 min. Then, the supernatant was filtered and was diluted 5-fold and then 160 µL distilled water was added to 40 µL of filtrate, followed by the injection of the mixture onto the HPLC column.
The amounts of p-, o-, m-Tyr and Phe in the samples were determined by measuring their autofluorescence. Thus, no derivatization or staining was needed. Samples were measured on a Shimadzu Class 10 HPLC system equipped with an RF-10 AXL fluorescent detector (Shimadzu USA Manufacturing Inc., Canby, OR, USA). The mobile phase consisted of 1% sodium acetate and 1% acetic acid dissolved in water. The separation took place on a LiChroCHART 250-4 column (Merck KGaA, Darmstadt 64271, Germany) in an isocratic run. Wavelengths of 275 nm for excitation and 305 nm for emission were used to assess p-, o- and m-Tyr, while Phe was detected at 258 nm excitation and 288 nm emission wavelengths. Determination of the area under the curve (AUC) plus external standard calibration was used to calculate the precise concentrations of the amino acids.

[4] = test system: GLUT4 and vimentin in podocytes; assay: Immunofluorescence of GLUT4 and vimentin in insulin-treated podocytes; assay type: cell-based, human; conditions: 400 nmol/l insulin for 10 min
Procedure: as §2, §5

What does the source list for “insulin: insulin (Sigma Aldrich, I 9278)”?
insulin-induced IRS-1 phosphorylation (IRS-1 (Tyr612)): approximately two-fold; insulin-induced glucose uptake, time dependence (3T3-L1 adipocytes [1]; 200 nmol/L insulin, cells grown 1, 2, 3, 4, 5 or 12 days with p-, m- or o-Tyr, n = 5–8): approximately two-fold; insulin-induced glucose uptake, 5 mmol/L glucose (3T3-L1 adipocytes [1]; 2, 20, 200, 400 nmol/L insulin, 5 mmol/L glucose, medium with p-, m- or o-Tyr): marked increase in glucose uptake in 5 mmol/L glucose; insulin-induced Akt phosphorylation (Akt (Ser473)): approximately two-fold

Which “phosphorylation by IR kinase” value [2] does the source give for “GRKGSGDF(2-hydroxy)MPMSPKV [o-tyrosine containing peptides, unphosphorylated ortho-tyrosine IRS-1 YXXM motif peptide]” here?
The value was “neither o- nor m-tyrosine containing peptides are substrates for the IR kinase”.

What about the “phosphorylation by IR kinase” value ([2]; listed as ortho-tyrosine peptides) of the same compound?
The value was “very poor substrates”.

Which results are given for “GRKGSGDF(3-hydroxy)MPMSPKV [m-tyrosine containing peptides, unphosphorylated meta-tyrosine IRS-1 YXXM motif peptide]”?
phosphorylation by IR kinase [2]: neither o- nor m-tyrosine containing peptides are substrates for the IR kinase; phosphorylation by IR kinase ([2]; listed as meta-tyrosine peptides): very poor substrates

How did the “membrane translocation of IRS-1 / p-IRS-1” value (p-IRS-1 in podocytes) turn out when N[C@@H](Cc1ccc(O)cc1)C(=O)O [p-Tyr, para-tyrosine, reference compound] was run?
Its value is “clearly demonstrated; also recorded: located in the membrane”.

What about the p-IRS-1 intensity (p-IRS-1 in podocytes; vs. p-Tyr) of the same compound?
The p-IRS-1 intensity was “more intense”.

And the “cellular uptake of amino acids (non-protein-bound intracellular content)” value (3T3-L1 adipocytes [3])?
The value was “continuous uptake of amino acids which was independent of glucose concentration (5 or 25 mmol/L) and the presence of insulin”.

What about the “reversal of inhibitory effect of o- and m-Tyr on glucose uptake” value (3T3-L1 adipocytes [1]; increasing p-Tyr concentrations, with or without 400 nmol/L insulin, n = 10) of the same compound?
The value was “ameliorated by increasing concentrations of p-Tyr”.

And the GLUT4 membrane localization [4]?
The GLUT4 membrane localization was “characteristic localization of GLUT-4 positivity; also recorded: GLUT4 aggregates are transported to the membrane”.

For “GRKGSGDF(4-hydroxy)MPMSPKV [p-Tyr containing “natural” peptide, unphosphorylated para-tyrosine IRS-1 YXXM motif peptide]”, which “phosphorylation by IR kinase” value [2] is on record?
The value was “efficiently phosphorylated”.
